# Assay results taken from PubChem BioAssay AID2060613 (Molecular Pharmacology Branch, DTP, NCI, 2025).
# Test system: 233499-124-R-J3-PDC complex spheroid viability
# Assay: Anticancer human tumor 233499-124-R-J3-PDC patient-derived colon adenocarcinoma cell line growth inhibition [CLK]
# Conditions: for IC50: curve of first compound; for viability, T/C: stronger effect = lower value
# Method in brief: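 Multi-cell-type spheroids combined patient-derived tumor cells with HUVEC endothelial cells and human mesenchymal stem cells. Paired agents were dosed in half-log steps down from about clinical Cmax, or from 10 microM where Cmax was unknown.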
# [1] = second compound 0.0316 µM, first compound 0.0316 µM
# [2] = second compound 0.0316 µM, first compound 0.1 µM
# [3] = second compound 0.0316 µM, first compound 0.316 µM
# [4] = second compound 0.0316 µM, first compound 1 µM
# [5] = second compound 0.0316 µM, first compound 3.16 µM
# [6] = second compound 0.0316 µM, first compound 10 µM
# [7] = second compound 0.1 µM, first compound 0.0316 µM
# [8] = second compound 0.1 µM, first compound 0.1 µM
# [9] = second compound 0.1 µM, first compound 0.316 µM
# [10] = second compound 0.1 µM, first compound 1 µM
# [11] = second compound 0.1 µM, first compound 3.16 µM
# [12] = second compound 0.1 µM, first compound 10 µM
# [13] = second compound 0.316 µM, first compound 0.0316 µM
# [14] = second compound 0.316 µM, first compound 0.1 µM
# [15] = second compound 0.316 µM, first compound 0.316 µM
# [16] = second compound 0.316 µM, first compound 1 µM
# [17] = second compound 0.316 µM, first compound 3.16 µM
# [18] = second compound 0.316 µM, first compound 10 µM
# [19] = second compound 1 µM, first compound 0.0316 µM
# [20] = second compound 1 µM, first compound 0.1 µM
# [21] = second compound 1 µM, first compound 0.316 µM
# [22] = second compound 1 µM, first compound 1 µM
# [23] = second compound 1 µM, first compound 3.16 µM
# [24] = second compound 1 µM, first compound 10 µM
# [25] = second compound 3.16 µM, first compound 0.0316 µM
# [26] = second compound 3.16 µM, first compound 0.1 µM
# [27] = second compound 3.16 µM, first compound 0.316 µM
# [28] = second compound 3.16 µM, first compound 1 µM
# [29] = second compound 3.16 µM, first compound 3.16 µM
# [30] = second compound 3.16 µM, first compound 10 µM
# [31] = second compound 10 µM, first compound 0.0316 µM
# [32] = second compound 10 µM, first compound 0.1 µM
# [33] = second compound 10 µM, first compound 0.316 µM
# [34] = second compound 10 µM, first compound 1 µM
# [35] = second compound 10 µM, first compound 3.16 µM
# [36] = second compound 10 µM, first compound 10 µM
# 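Also: spheroids exposed to the drug combinations for seven days.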
# 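For viability, T/C in this document: percent viability relative to DMSO vehicle control wells taken as 100%.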
structure (smiles),measurement,setting,value
O=C(c1cc(Cc2n[nH]c(=O)c3ccccc23)ccc1F)N1CCN(C(=O)C2CC2)CC1 + CNC(=O)c1ccc(Nc2nc(OC3CCCC3)c3c(-c4ccc5nc(C)oc5c4)c[nH]c3n2)c(OC)c1,IC50,second compound 0.0316 µM,> 10 µM
same,IC50,second compound 0.1 µM,> 10 µM
same,IC50,second compound 0.316 µM,> 10 µM
same,IC50,second compound 1 µM,> 10 µM
same,IC50,second compound 3.16 µM,> 10 µM
same,IC50,second compound 10 µM,> 10 µM
same,"viability, T/C",[1],96%
same,"viability, T/C",[2],91.1%
same,"viability, T/C",[3],93%
same,"viability, T/C",[4],102%
same,"viability, T/C",[5],102%
same,"viability, T/C",[6],95.7%
same,"viability, T/C",[7],76.7%
same,"viability, T/C",[8],84.3%
same,"viability, T/C",[9],71.6%
same,"viability, T/C",[10],70.1%
same,"viability, T/C",[11],57.8%
same,"viability, T/C",[12],55.1%
same,"viability, T/C",[13],75.6%
same,"viability, T/C",[14],77.7%
same,"viability, T/C",[15],78%
same,"viability, T/C",[16],78%
same,"viability, T/C",[17],84.1%
same,"viability, T/C",[18],76.2%
same,"viability, T/C",[19],67.6%
same,"viability, T/C",[20],79.6%
same,"viability, T/C",[21],65.6%
same,"viability, T/C",[22],71.2%
same,"viability, T/C",[23],74.4%
same,"viability, T/C",[24],68.4%
same,"viability, T/C",[25],80%
same,"viability, T/C",[26],79.1%
same,"viability, T/C",[27],75.6%
same,"viability, T/C",[28],66.7%
same,"viability, T/C",[29],87.8%
same,"viability, T/C",[30],59.6%
same,"viability, T/C",[31],71%
same,"viability, T/C",[32],85.3%
same,"viability, T/C",[33],74.8%
same,"viability, T/C",[34],75.2%
same,"viability, T/C",[35],65%
same,"viability, T/C",[36],57.1%
CC(Nc1ccc2c(c1)OCCn1cc(N3C(=O)OCC3C(F)F)nc1-2)C(N)=O (centres undefined) + CNC(=O)c1ccc(Nc2nc(OC3CCCC3)c3c(-c4ccc5nc(C)oc5c4)c[nH]c3n2)c(OC)c1,IC50,second compound 0.0316 µM,> 10 µM
same,IC50,second compound 0.1 µM,3.88 µM
same,IC50,second compound 0.316 µM,2.81 µM
same,IC50,second compound 1 µM,0.316 µM
same,IC50,second compound 3.16 µM,0.624 µM
same,IC50,second compound 10 µM,1.08 µM
same,"viability, T/C",[1],85.3%
same,"viability, T/C",[2],94.6%
same,"viability, T/C",[3],81%
same,"viability, T/C",[4],72.7%
same,"viability, T/C",[5],65.5%
same,"viability, T/C",[6],53.6%
same,"viability, T/C",[7],68.9%
same,"viability, T/C",[8],75.1%
same,"viability, T/C",[9],72.2%
same,"viability, T/C",[10],64.8%
same,"viability, T/C",[11],52.9%
same,"viability, T/C",[12],38.6%
same,"viability, T/C",[13],66.9%
same,"viability, T/C",[14],65.7%
same,"viability, T/C",[15],72.2%
same,"viability, T/C",[16],58.4%
same,"viability, T/C",[17],49.6%
same,"viability, T/C",[18],32.5%
same,"viability, T/C",[19],74.8%
same,"viability, T/C",[20],74.9%
same,"viability, T/C",[21],50%
same,"viability, T/C",[22],42.7%
same,"viability, T/C",[23],45.9%
same,"viability, T/C",[24],42.4%
same,"viability, T/C",[25],61.3%
same,"viability, T/C",[26],63.6%
same,"viability, T/C",[27],56.4%
same,"viability, T/C",[28],41.1%
same,"viability, T/C",[29],42.3%
same,"viability, T/C",[30],37%
same,"viability, T/C",[31],60.8%
same,"viability, T/C",[32],55.9%
same,"viability, T/C",[33],68.1%
same,"viability, T/C",[34],44.8%
same,"viability, T/C",[35],39%
same,"viability, T/C",[36],22.2%
